Tests used:
[1] = molecular target: T1, Peroxisome proliferator-activated receptor gamma (Homo sapiens, UniProt P37231); type: functional
T1 sequence (P37231 whole entry): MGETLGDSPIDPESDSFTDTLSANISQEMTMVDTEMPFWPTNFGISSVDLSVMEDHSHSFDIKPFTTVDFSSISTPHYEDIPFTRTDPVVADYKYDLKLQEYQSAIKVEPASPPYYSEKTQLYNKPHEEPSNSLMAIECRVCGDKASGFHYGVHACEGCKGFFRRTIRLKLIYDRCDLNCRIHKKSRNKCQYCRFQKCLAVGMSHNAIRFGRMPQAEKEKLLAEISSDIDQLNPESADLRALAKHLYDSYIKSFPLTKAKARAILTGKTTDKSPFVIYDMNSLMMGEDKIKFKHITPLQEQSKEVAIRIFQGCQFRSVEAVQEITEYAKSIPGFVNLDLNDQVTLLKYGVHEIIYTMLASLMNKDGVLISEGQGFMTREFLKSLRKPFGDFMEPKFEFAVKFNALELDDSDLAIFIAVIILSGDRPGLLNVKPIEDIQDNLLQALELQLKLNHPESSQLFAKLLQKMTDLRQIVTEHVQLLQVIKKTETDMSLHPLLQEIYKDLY

[2] = molecular target: Histamine H1 receptor (Homo sapiens, UniProt P35367); type: functional, cell-based
[3] = molecular target: T1, Peroxisome proliferator-activated receptor gamma; type: functional; remark: listed apart in the source
[4] = molecular target: Beta-1 adrenergic receptor (Homo sapiens, UniProt P08588); type: functional, cell-based
[5] = molecular target: T2, Estrogen receptor (Homo sapiens, UniProt P03372); type: functional
T2 sequence (P03372 whole entry): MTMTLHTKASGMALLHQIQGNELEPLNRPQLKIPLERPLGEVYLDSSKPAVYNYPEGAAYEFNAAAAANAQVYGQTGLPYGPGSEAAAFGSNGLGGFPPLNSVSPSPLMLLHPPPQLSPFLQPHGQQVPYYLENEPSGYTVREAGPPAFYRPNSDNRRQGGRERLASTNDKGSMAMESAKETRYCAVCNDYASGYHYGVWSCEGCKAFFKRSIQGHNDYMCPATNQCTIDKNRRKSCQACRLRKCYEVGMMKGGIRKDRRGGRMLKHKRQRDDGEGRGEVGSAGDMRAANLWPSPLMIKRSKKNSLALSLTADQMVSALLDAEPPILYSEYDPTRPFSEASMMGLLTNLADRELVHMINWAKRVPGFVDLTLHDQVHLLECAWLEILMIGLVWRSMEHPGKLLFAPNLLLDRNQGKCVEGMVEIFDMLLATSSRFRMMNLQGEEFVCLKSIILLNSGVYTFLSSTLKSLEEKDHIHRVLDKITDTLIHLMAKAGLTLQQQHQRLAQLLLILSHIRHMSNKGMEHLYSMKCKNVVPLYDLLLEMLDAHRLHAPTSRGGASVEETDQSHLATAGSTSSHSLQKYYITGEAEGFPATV

[6] = molecular target: Rod cGMP-specific 3',5'-cyclic phosphodiesterase subunit alpha (Homo sapiens, UniProt P16499); type: functional
[7] = molecular target: Substance-P receptor (Homo sapiens, UniProt P25103)
[8] = molecular target: 5-hydroxytryptamine receptor 2A (Homo sapiens, UniProt P28223)
[9] = molecular target: Hydroxycarboxylic acid receptor 2 (Homo sapiens, UniProt Q8TDS4)
[10] = molecular target: D(1B) dopamine receptor (Homo sapiens, UniProt P21918)
[11] = molecular target: T3, Muscarinic acetylcholine receptor M4 (Homo sapiens, UniProt P08173)
T3 sequence (P08173 whole entry): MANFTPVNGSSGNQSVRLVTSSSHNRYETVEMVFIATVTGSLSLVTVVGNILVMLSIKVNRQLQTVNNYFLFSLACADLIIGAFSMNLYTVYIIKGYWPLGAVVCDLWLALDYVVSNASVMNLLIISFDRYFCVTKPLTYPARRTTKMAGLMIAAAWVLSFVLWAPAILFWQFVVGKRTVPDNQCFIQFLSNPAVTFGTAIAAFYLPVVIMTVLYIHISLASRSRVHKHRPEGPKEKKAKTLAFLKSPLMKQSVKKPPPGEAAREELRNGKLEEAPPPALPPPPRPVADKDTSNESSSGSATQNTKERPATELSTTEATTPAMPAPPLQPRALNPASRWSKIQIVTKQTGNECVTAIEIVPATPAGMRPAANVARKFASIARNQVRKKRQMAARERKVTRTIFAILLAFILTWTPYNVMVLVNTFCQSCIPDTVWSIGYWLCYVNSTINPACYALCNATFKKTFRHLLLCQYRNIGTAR

[12] = molecular target: T4, Muscarinic acetylcholine receptor M5 (Homo sapiens, UniProt P08912)
T4 sequence (P08912 whole entry): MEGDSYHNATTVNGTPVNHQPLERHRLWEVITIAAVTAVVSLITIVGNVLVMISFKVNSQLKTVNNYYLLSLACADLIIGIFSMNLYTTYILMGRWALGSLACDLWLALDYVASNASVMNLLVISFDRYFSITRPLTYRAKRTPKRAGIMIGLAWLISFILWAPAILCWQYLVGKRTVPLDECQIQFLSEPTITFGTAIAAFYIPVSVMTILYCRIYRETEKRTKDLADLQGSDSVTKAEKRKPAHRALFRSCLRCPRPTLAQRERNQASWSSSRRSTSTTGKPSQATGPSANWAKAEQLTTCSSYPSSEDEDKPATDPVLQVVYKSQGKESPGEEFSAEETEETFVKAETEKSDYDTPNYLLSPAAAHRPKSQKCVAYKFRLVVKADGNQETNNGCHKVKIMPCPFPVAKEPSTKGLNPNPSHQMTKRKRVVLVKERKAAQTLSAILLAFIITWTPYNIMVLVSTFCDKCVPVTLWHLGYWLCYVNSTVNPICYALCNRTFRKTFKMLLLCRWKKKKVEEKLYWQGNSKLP

[13] = molecular target: Gamma-aminobutyric acid type B receptor subunit 1 (Homo sapiens, UniProt Q9UBS5)
[14] = molecular target: Cannabinoid receptor 1 (Homo sapiens, UniProt P21554); type: functional
[15] = molecular target: 5-hydroxytryptamine receptor 5A (Homo sapiens, UniProt P47898)
Also: assay procedure not described here.

Gamma-aminobutyric acid type B receptor subunit 1, sequence (Q9UBS5 whole entry): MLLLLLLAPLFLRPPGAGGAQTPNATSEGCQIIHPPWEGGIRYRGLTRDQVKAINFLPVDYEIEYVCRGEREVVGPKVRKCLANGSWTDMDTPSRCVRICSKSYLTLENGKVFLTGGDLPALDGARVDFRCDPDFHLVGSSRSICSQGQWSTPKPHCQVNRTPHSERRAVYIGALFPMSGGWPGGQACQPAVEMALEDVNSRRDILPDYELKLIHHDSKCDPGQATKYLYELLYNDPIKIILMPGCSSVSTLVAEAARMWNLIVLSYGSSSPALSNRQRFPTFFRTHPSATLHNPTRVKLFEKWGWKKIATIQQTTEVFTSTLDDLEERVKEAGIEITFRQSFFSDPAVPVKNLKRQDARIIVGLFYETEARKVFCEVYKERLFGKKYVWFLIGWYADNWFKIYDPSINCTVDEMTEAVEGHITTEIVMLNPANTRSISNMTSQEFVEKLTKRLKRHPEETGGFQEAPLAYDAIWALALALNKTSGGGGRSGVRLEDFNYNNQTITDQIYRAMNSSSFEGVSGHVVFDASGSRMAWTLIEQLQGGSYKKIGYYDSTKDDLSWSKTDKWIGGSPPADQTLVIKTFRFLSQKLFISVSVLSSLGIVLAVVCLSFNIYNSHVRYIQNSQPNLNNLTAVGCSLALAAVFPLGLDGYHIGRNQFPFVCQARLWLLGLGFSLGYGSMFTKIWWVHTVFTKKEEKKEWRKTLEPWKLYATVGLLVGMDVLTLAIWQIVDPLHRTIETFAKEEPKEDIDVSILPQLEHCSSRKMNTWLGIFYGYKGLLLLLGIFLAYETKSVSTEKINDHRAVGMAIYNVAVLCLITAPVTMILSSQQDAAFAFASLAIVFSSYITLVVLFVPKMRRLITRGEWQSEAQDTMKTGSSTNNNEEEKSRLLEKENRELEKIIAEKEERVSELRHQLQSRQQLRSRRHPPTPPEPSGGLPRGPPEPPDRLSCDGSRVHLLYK
5-hydroxytryptamine receptor 2A, sequence (P28223 whole entry): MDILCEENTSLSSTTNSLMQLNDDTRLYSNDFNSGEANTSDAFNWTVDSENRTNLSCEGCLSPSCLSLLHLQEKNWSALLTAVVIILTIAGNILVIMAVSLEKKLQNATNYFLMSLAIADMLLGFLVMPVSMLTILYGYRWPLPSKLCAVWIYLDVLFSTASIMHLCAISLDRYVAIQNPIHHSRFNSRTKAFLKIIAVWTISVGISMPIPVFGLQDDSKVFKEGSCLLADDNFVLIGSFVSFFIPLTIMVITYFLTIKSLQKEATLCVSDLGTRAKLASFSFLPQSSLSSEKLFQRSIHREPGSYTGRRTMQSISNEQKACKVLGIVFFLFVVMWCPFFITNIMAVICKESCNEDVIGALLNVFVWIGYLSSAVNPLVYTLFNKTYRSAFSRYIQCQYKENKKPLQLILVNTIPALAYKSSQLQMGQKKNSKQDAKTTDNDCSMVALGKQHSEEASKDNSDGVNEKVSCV
Substance-P receptor, sequence (P25103 whole entry): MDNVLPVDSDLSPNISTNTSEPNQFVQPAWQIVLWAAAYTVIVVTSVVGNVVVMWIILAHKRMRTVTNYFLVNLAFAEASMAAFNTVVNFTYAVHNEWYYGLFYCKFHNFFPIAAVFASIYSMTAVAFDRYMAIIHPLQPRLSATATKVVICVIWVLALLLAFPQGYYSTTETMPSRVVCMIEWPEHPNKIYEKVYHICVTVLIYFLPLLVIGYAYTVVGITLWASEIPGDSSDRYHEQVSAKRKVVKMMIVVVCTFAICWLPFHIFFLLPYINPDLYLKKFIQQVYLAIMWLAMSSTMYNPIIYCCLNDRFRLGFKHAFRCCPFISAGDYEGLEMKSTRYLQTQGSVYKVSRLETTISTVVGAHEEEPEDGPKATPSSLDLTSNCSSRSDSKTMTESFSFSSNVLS
Cannabinoid receptor 1, sequence (P21554 whole entry): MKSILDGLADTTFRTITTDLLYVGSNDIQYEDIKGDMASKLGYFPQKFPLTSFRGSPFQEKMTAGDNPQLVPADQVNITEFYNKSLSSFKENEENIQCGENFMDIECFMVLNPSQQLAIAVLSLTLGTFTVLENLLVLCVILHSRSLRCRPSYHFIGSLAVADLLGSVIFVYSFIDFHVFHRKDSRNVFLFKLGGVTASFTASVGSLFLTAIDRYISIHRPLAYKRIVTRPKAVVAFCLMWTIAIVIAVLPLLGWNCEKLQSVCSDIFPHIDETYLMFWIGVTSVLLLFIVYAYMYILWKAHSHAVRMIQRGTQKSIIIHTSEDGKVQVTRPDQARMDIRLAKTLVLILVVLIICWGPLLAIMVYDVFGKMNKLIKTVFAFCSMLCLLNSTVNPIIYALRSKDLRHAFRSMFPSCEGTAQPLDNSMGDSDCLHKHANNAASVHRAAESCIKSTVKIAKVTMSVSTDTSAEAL
Rod cGMP-specific 3',5'-cyclic phosphodiesterase subunit alpha, sequence (P16499 whole entry): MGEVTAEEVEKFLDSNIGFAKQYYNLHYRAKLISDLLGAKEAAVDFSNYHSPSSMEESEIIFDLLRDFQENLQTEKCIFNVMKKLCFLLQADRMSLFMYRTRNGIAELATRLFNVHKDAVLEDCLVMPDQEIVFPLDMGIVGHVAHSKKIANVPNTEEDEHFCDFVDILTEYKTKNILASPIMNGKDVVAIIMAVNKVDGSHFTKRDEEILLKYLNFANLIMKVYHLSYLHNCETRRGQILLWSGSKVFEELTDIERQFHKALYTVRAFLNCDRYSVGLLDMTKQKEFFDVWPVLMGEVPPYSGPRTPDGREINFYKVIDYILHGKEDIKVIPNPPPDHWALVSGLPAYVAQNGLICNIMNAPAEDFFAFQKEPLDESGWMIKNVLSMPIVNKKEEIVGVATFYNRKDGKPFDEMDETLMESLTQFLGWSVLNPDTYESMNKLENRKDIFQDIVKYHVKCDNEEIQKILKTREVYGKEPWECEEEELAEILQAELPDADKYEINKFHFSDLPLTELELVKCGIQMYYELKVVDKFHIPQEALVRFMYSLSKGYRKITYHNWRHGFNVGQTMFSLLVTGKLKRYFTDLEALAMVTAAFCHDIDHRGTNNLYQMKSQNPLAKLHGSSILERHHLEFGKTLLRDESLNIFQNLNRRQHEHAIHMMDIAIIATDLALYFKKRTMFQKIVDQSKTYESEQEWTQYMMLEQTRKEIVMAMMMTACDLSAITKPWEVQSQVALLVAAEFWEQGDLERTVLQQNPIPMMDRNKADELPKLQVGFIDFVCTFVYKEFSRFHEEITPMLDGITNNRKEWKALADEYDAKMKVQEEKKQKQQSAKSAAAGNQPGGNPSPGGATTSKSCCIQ
D(1B) dopamine receptor, sequence (P21918 whole entry): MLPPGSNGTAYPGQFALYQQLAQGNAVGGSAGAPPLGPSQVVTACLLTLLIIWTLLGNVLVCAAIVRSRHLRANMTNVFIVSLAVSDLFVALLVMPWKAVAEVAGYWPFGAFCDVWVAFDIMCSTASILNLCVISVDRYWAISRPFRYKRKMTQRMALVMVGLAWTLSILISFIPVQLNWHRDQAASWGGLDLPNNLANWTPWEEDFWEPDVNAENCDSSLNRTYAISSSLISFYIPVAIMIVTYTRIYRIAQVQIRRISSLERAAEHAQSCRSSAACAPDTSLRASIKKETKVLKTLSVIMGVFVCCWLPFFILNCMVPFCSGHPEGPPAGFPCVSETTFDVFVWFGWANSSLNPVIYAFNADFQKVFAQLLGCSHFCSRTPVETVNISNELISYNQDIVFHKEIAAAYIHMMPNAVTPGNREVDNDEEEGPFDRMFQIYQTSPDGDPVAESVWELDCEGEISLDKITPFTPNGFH
Beta-1 adrenergic receptor, sequence (P08588 whole entry): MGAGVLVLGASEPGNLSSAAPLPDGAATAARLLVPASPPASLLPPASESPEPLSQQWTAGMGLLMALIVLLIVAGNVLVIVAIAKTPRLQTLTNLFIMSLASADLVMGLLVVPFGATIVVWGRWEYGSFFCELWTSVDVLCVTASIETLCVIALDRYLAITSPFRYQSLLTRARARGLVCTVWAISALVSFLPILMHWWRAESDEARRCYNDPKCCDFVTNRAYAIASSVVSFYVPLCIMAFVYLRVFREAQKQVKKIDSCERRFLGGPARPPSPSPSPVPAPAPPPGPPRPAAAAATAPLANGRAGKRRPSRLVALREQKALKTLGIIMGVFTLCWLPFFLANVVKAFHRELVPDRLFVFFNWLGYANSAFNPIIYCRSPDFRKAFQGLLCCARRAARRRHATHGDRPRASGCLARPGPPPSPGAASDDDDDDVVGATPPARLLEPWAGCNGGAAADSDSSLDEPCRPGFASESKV
Histamine H1 receptor, sequence (P35367 whole entry): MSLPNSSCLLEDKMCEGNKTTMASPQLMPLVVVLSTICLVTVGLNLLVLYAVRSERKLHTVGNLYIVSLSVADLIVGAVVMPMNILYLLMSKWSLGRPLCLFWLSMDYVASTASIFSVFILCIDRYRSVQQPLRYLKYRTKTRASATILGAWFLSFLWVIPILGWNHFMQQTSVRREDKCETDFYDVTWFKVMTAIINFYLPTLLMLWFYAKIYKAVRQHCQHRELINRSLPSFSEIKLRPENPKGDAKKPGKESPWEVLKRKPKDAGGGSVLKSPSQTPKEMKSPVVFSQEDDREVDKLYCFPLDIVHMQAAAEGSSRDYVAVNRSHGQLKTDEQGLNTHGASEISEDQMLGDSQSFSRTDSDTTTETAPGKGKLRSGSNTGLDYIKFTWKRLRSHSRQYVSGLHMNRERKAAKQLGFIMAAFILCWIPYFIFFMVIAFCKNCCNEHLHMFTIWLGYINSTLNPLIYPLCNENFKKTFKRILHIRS
Hydroxycarboxylic acid receptor 2, sequence (Q8TDS4 whole entry): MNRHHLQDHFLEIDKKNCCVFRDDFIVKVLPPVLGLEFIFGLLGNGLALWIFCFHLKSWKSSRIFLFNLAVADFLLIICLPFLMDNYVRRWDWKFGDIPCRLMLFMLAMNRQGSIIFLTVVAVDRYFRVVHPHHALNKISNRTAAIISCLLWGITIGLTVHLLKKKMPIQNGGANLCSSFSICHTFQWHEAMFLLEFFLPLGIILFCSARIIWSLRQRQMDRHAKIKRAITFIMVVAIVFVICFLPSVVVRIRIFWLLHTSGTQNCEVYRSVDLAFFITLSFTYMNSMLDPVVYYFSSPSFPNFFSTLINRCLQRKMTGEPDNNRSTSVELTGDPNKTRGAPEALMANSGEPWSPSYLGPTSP

SMILES	AC50 [1] [µM]	AC50 [2] [µM]	AC50 [3] [µM]	AC50 [7] [µM]	other results
CCN(CC)CCCN(c1ccccc1)C1Cc2ccccc2C1 [APRINDINE]	> 30	8	> 30	–	–
CN1CCCN=C1/C=C/c1cccc(O)c1 [OXANTEL]	–	–	–	–	AC50 [4]: > 30 µM
CC(=O)OCC(=O)[C@@]1(O)CC[C@H]2[C@@H]3CCC4=CC(=O)CC[C@]4(C)[C@@]3(F)[C@@H](O)C[C@@]21C [FLUDROCORTISONE ACETATE]	–	–	–	–	AC50 [4]: > 30 µM
CCCCCCOC(=O)NC(=N)c1ccc(NCc2nc3cc(C(=O)N(CCC(=O)OCC)c4ccccn4)ccc3n2C)cc1 [DABIGATRAN ETEXILATE]	> 30	–	> 30	–	AC50 [5]: > 30 µM
O=C(O)c1nn(Cc2ccc(Cl)cc2Cl)c2ccccc12 [LONIDAMINE]	> 30	> 30	> 30	–	–
CS(=O)(=O)NC(=O)CCC/C=C\C[C@H]1C(=O)C[C@@H](O)[C@@H]1/C=C/[C@@H](O)COc1ccccc1 [SULPROSTONE]	> 30	> 30	> 30	–	–
CCN(CC)CC(=O)Nc1c(C)cccc1C [LIDOCAINE]	–	–	–	> 10	AC50 [6]: > 10 µM
CN1C(=O)CN=C(c2ccccc2F)c2cc([N+](=O)[O-])ccc21 [FLUNITRAZEPAM]	–	–	–	> 10	AC50 [8]: > 10 µM
CC(=O)OCC1=C(C(=O)O)N2C(=O)[C@@H](NC(=O)Cc3cccs3)[C@H]2SC1 [CEPHALOTHIN]	> 30	–	> 30	–	–
Oc1cc(O)c2c(c1)O[C@H](c1ccc(O)c(O)c1)[C@@H](O)C2 [CIANIDANOL]	–	> 30	–	–	AC50 [8]: > 10 µM
O=C(O[C@H]1C[N+]2(CCCOc3ccccc3)CCC1CC2)C(O)(c1cccs1)c1cccs1 [ACLIDINIUM BROMIDE]	–	–	–	0.497	AC50 [9]: > 10 µM; AC50 [8]: > 10 µM
O=C1CN=C(c2ccccc2Cl)c2cc([N+](=O)[O-])ccc2N1 [CLONAZEPAM]	–	–	–	> 10	AC50 [9]: > 10 µM
CCCCCCCC(=O)CC[C@@H]1[C@@H](C/C=C\CCCC(=O)O)[C@@H](O)C[C@H]1O [UNOPROSTONE]	> 30	> 30	> 30	–	–
COc1nc(C)nc(Cl)c1N=C1NCCN1 [MOXONIDINE]	–	–	–	–	AC50 [4]: > 30 µM
CC1NCCOC1c1ccccc1 (stereo not drawn) [PHENMETRAZINE]	–	> 30	–	–	AC50 [8]: > 10 µM
Cc1ccc(-c2ncc(Cl)cc2-c2ccc(S(C)(=O)=O)cc2)cn1 [ETORICOXIB]	–	> 30	–	> 10	AC50 [10]: > 10 µM; AC50 [11]: > 10 µM; AC50 [12]: > 10 µM; AC50 [6]: > 10 µM; AC50 [13]: > 10 µM; AC50 [14]: > 10 µM; AC50 [15]: > 10 µM; AC50 [8]: > 10 µM

SMILES	AC50 [1] [µM]	AC50 [2] [µM]	AC50 [3] [µM]	AC50 [7] [µM]	other results
Cc1cnc(Nc2ccc(OCCN3CCCC3)cc2)nc1Nc1cccc(S(=O)(=O)NC(C)(C)C)c1 [FEDRATINIB]	–	–	–	–	AC50 [8]: 3.12 µM
CC(C)(N)Cc1ccccc1 [PHENTERMINE]	–	–	–	–	AC50 [13]: > 10 µM; AC50 [8]: > 10 µM
Cc1nnc2n1-c1ccc(Cl)cc1C(c1ccccc1)=NC2 [ALPRAZOLAM]	–	–	–	> 10	AC50 [9]: > 10 µM
CCOC(=O)C1=C(C)NC(C)=C(C(=O)OC)C1c1cccc(Cl)c1Cl (stereo not drawn) [FELODIPINE]	–	–	–	> 10	–
Cc1ccc(S(=O)(=O)NC(=O)N[C@H]2[C@H]3CC[C@@](C)([C@H]2O)C3(C)C)cc1 [GLIBORNURIDE]	–	–	–	–	AC50 [4]: > 30 µM
COc1ccc2c3c1O[C@H]1C(=O)CC[C@H]4[C@@H](C2)N(C)CC[C@]314 [HYDROCODONE]	–	–	–	> 10	AC50 [9]: > 10 µM; AC50 [8]: > 10 µM
COc1ccc(-n2nc(C(N)=O)c3c2C(=O)N(c2ccc(N4CCCCC4=O)cc2)CC3)cc1 [APIXABAN]	> 30	–	> 30	–	AC50 [5]: > 30 µM
CC1=C(C(=O)O)N2C(=O)[C@@H](NC(=O)[C@H](N)C3=CCC=CC3)[C@H]2SC1 [CEPHRADINE]	> 30	–	> 30	–	–
CN1C2CCCC1CC(NC(=O)c1nn(C)c3ccccc13)C2 (stereo not drawn) [GRANISETRON]	–	–	–	> 10	AC50 [10]: > 10 µM; AC50 [11]: > 10 µM; AC50 [12]: > 10 µM; AC50 [6]: > 10 µM; AC50 [14]: > 10 µM; AC50 [15]: > 10 µM
CCCCC[C@H](O)CC[C@@H]1[C@H]2Cc3cccc(OCC(=O)O)c3C[C@H]2C[C@H]1O [TREPROSTINIL]	> 30	–	> 30	–	–
COc1ccc(C(Cl)=C(c2ccc(OC)cc2)c2ccc(OC)cc2)cc1 [CHLOROTRIANISENE]	–	> 30	–	–	–
COC(=O)c1ccc2c(c1)NC(=O)/C2=C(\Nc1ccc(N(C)C(=O)CN2CCN(C)CC2)cc1)c1ccccc1 [NINTEDANIB]	> 30	–	4.8	–	AC50 [5]: > 10 µM
CC(NC(C)(C)C)C(=O)c1cccc(Cl)c1 (stereo not drawn) [BUPROPION]	–	–	–	> 10	AC50 [10]: > 10 µM; AC50 [11]: > 10 µM; AC50 [12]: > 10 µM; AC50 [13]: > 10 µM; AC50 [14]: > 10 µM; AC50 [15]: > 10 µM
NS(=O)(=O)c1ccc(N2CCCCS2(=O)=O)cc1	–	> 30	–	–	–
CCC(=O)O[C@H](CC(=O)O)C[N+](C)(C)C [LEVOCARNITINE PROPIONATE]	> 30	> 30	> 30	–	–
C=C(c1ccccc1OCc1cccc(Cl)c1)n1ccnc1 [CROCONAZOLE]	–	–	–	–	AC50 [8]: 1.11 µM
